Results published in US20230077362A1 (CORTEVA AGRISCIENCE LLC, priority 2019, published 2023).

Columns and labels:
[1] = tested on: Cabbage Looper (Trichoplusia ni) ("CL"), second instar larvae; test: Bioassay on cabbage looper (CL), 128-well diet tray assay; assay type: in vivo; conditions: Trichoplusia ni, read-out: CL (Biological Results, rating)
Description: (§1) Certain molecules disclosed in this document were tested against BAW and CL using procedures described in the following examples. In the reporting of the results, the “BAW & CL Rating Table” was used (See Table Section).
(§2) Trays were covered with a clear self-adhesive cover and held at 25° C., 14:10 light-dark cycle for five to seven days. Percent mortality was recorded for the larvae in each well; activity in the eight wells was then averaged. The results are indicated in the table entitled “Table ABC: Biological Results” (See Table Section).

[2] = tested on: Beet Armyworm (Spodoptera exigua) ("BAW"), second instar larvae; test: Bioassay on beet armyworm (BAW), 128-well diet tray assay; assay type: in vivo; conditions: Spodoptera exigua, read-out: BAW (Biological Results, rating)
Description: as §1, §2

| Structure (SMILES) | pest or weed control at 50 µg/cm2 [1] | pest or weed control at 50 µg/cm2 [2] |
| --- | --- | --- |
| O=C(/N=C1\SCC(=O)N1c1cc(Cl)ccc1C(F)(F)F)NCC(F)c1ccc(-c2ncn(-c3ccc(OC(F)(F)F)cc3)n2)cc1 (stereo not shown) [Compound H6] | 50 to 100% | 50 to 100% |
| N#CC(CNC(=O)/N=C1\SCC(=O)N1c1cc(Cl)ccc1C(F)(F)F)c1ccc(-c2ncn(-c3ccc(OC(F)(F)F)cc3)n2)cc1 (stereo not shown) [Compound H8, (Z)-1-(3-(5-chloro-2-(trifluoromethyl)phenyl)-4-oxothiazolidin-2-ylidene)-3-(2-cyano-2-(4-(1-(4-(trifluoromethoxy)phenyl)-1H-1,2,4-triazol-3-yl)phenyl)ethyl)urea] | 50 to 100% | 50 to 100% |
| O=C(/N=C1\SCC(=O)N1c1ccccc1C(F)(F)F)Nc1ccc(-c2ncn(-c3ccc(OC(F)(F)F)cc3)n2)cc1 [Compound H10] | 50 to 100% | 50 to 100% |
| Cc1ccc(CC(F)(F)F)c(N2C(=O)CS/C2=N\C(=O)NCCc2ccc(-c3ncn(-c4ccc(OC(F)(F)F)cc4)n3)cc2)c1 [Compound H12] | 50 to 100% | 50 to 100% |
| Cc1ccc(CC(F)(F)F)c(N2C(=O)CS/C2=N\C(=O)NCC(F)c2ccc(-c3ncn(-c4ccc(OC(F)(F)F)cc4)n3)cc2)c1 (stereo not shown) [Compound H13] | 50 to 100% | 50 to 100% |
| COc1ccc(CC(F)(F)F)c(N2C(=O)CS/C2=N\C(=O)NC(C)Cc2ccc(-c3ncn(-c4ccc(OC(F)(F)F)cc4)n3)cc2)c1 (stereo not shown) [Compound H15] | 50 to 100% | 50 to 100% |
| COc1ccc(CC(F)(F)F)c(N2C(=O)CS/C2=N\C(=O)NCC(F)c2ccc(-c3ncn(-c4ccc(OC(F)(F)F)cc4)n3)cc2C)c1 (stereo not shown) [Compound H16] | 50 to 100% | 50 to 100% |
| COc1ccc(CC(F)(F)F)c(N2C(=O)CS/C2=N\C(=O)NCC(F)c2ccc(-c3ncn(-c4ccc(OC(F)(F)F)cc4)n3)c(OC)c2)c1 (stereo not shown) [Compound H17] | 50 to 100% | 50 to 100% |
| Cc1ccc(C(C)C)c(N2C(=O)CS/C2=N\C(=O)Nc2ccc(-c3ncn(-c4ccc(OC(F)(F)C(F)(F)F)cc4)n3)c(C)c2)c1 [Compound J2] | 50 to 100% | 50 to 100% |
| Cc1ccc(C(C)C)c(N2C(=O)CS/C2=N\C(=O)Nc2ccc(-c3ncn(-c4ccc(C(F)(F)F)cc4)n3)c(C)c2)c1 [Compound J4, (Z)-1-(3-(2-Isopropyl-5-methylphenyl)-4-oxothiazolidin-2-ylidene)-3-(3-methyl-4-(1-(4-(trifluoromethyl)phenyl)-1H-1,2,4-triazol-3-yl)phenyl)urea] | 50 to 100% | 50 to 100% |
| COc1ccc(C(C)C)c(N2C(=O)CS/C2=N\C(=O)Nc2ccc(-c3ncn(-c4ccc(C(F)(F)F)cc4)n3)c(C)c2)c1 [Compound J5, (Z)-1-(3-(2-Isopropyl-5-methoxyphenyl)-4-oxothiazolidin-2-ylidene)-3-(3-methyl-4-(1-(4-(trifluoromethyl)phenyl)-1H-1,2,4-triazol-3-yl)phenyl)urea] | 50 to 100% | 50 to 100% |
| COc1ccc(C(C)C)c(N2C(=O)CS/C2=N\C(=O)Nc2ccc(-c3ncn(-c4ccc(OC(F)(F)F)cc4)n3)cc2OC)c1 [Compound J6, (Z)-1-(3-(2-Isopropyl-5-methoxyphenyl)-4-oxothiazolidin-2-ylidene)-3-(2-methoxy-4-(1-(4-(trifluoromethoxy)phenyl)-1H-1,2,4-triazol-3-yl)phenyl)urea] | 50 to 100% | 50 to 100% |
| COc1ccc(C(C)C)c(N2C(=O)CS/C2=N\C(=O)Nc2ccc(-c3ncn(-c4ccc(OC(F)(F)C(F)(F)F)cc4)n3)c(C)c2)c1 [Compound J7, (Z)-1-(3-(2-Isopropyl-5-methoxyphenyl)-4-oxothiazolidin-2-ylidene)-3-(3-methyl-4-(1-(4-(perfluoroethoxy)phenyl)-1H-1,2,4-triazol-3-yl)phenyl)urea] | 50 to 100% | 50 to 100% |
| COc1ccc(C(C)C)c(N2C(=O)CS/C2=N\C(=O)Nc2ccc(-c3ncn(-c4ccc(C(F)(F)F)cc4)n3)cc2C)c1 [Compound J8, (Z)-1-(3-(2-Isopropyl-5-methoxyphenyl)-4-oxothiazolidin-2-ylidene)-3-(2-methyl-4-(1-(4-(trifluoromethyl)phenyl)-1H-1,2,4-triazol-3-yl)phenyl)urea] | 50 to 100% | 50 to 100% |
| COc1ccc(C(C)C)c(N2C(=O)CS/C2=N\C(=O)Nc2ccc(-c3ncn(-c4ccc(C(F)(F)F)cc4)n3)cc2OC)c1 [Compound J10, (Z)-1-(3-(2-Isopropyl-5-methoxyphenyl)-4-oxothiazolidin-2-ylidene)-3-(2-methoxy-4-(1-(4-(trifluoromethyl)phenyl)-1H-1,2,4-triazol-3-yl)phenyl)urea] | 50 to 100% | 50 to 100% |
| COc1ccc(C(C)C)c(N2C(=O)CS/C2=N\C(=O)Nc2ccc(-c3ncn(-c4ccc(C(F)(F)F)cc4)n3)cc2F)c1 [Compound J11, (Z)-1-(2-Fluoro-4-(1-(4-(trifluoromethyl)phenyl)-1H-1,2,4-triazol-3-yl)phenyl)-3-(3-(2-isopropyl-5-methoxyphenyl)-4-oxothiazolidin-2-ylidene)urea] | 50 to 100% | 50 to 100% |
| CCCc1ccc(C)cc1N1C(=O)CS/C1=N\C(=O)Nc1ccc(-c2ncn(-c3ccc(OC(F)(F)C(F)(F)F)cc3)n2)c(C)c1 [Compound J12, (Z)-1-(3-(5-Methyl-2-propylphenyl)-4-oxothiazolidin-2-ylidene)-3-(3-methyl-4-(1-(4-(perfluoroethoxy)phenyl)-1H-1,2,4-triazol-3-yl)phenyl)urea] | 50 to 100% | 50 to 100% |
| COc1cc(-c2ncn(-c3ccc(C(F)(F)F)cc3)n2)ccc1NC(=O)/N=C1\SCC(=O)N1c1cc(C)ccc1C(C)C [Compound J13, (Z)-1-(3-(2-Isopropyl-5-methylphenyl)-4-oxothiazolidin-2-ylidene)-3-(2-methoxy-4-(1-(4-(trifluoromethyl)phenyl)-1H-1,2,4-triazol-3-yl)phenyl)urea] | 50 to 100% | 50 to 100% |
| CCc1ccc(C)cc1N1C(=O)CS/C1=N\C(=O)Nc1ccc(-c2ncn(-c3ccc(OC(F)(F)C(F)(F)F)cc3)n2)c(C)c1 [Compound J14, (Z)-1-(3-(2-Ethyl-5-methylphenyl)-4-oxothiazolidin-2-ylidene)-3-(3-methyl-4-(1-(4-(perfluoroethoxy)phenyl)-1H-1,2,4-triazol-3-yl)phenyl)urea] | 50 to 100% | 50 to 100% |
| CCCc1ccc(C)cc1N1C(=O)CS/C1=N\C(=O)Nc1ccc(-c2ncn(-c3ccc(C(F)(F)F)cc3)n2)cc1C [Compound J15, (Z)-1-(3-(5-Methyl-2-propylphenyl)-4-oxothiazolidin-2-ylidene)-3-(2-methyl-4-(1-(4-(trifluoromethyl)phenyl)-1H-1,2,4-triazol-3-yl)phenyl)urea] | 50 to 100% | 50 to 100% |
